Source: patent publication US20050203067A1, “Pesticidal compositions and methods” (priority 2003, published 2005)
Values after ≈ are worked out from the molar mass of the structure shown. Values joined by “and” are separate entries in the source; they are usually repeats but may differ in a detail not shown here. Equal entries are not always repeated. “Also recorded” adds a separate entry of the source. Where two headings read alike, the source gives them in different places.

Assays:
C. elegans (strain N2) = assay: C. elegans contact assay (NGM-agar, 24-well); type: in vivo
C. elegans [1] = assay: Nematicidal activity of ethanolamine-like compounds on NGM plates (L4 P0, F1 phenotype); type: in vivo, Caenorhabditis elegans
Cephalobus sp. = assay: Nematicidal activity against other nematodes (F1 phenotype); type: in vivo
A. ellesmerensis = assay: as above; type: in vivo, Acrobiloides ellesmerensis
C. elegans [2] = assay: C. elegans agar (plate) assay; type: in vivo; conditions: Caenorhabditis elegans, read-out: Plate EC50
C. elegans [3] = assay: C. elegans liquid (well) assay; type: in vivo; conditions: Caenorhabditis elegans, read-out: Well EC50
[4] = test system: Meloidogyne incognita J2 larvae; assay: Miniaturized greenhouse assay on cucumber seedlings, root gall rating; type: in vivo; conditions: for Gall 40 (gall rating): 40 ppm; for Gall 200 (gall rating): 200 ppm
cucumber seedling = assay: Miniaturized greenhouse assay, phytotoxicity rating; conditions: for Ptox 40 (phytotoxicity rating): 40 ppm; for Ptox 200 (phytotoxicity rating): 200 ppm
[5] = test system: C. elegans PEAMT1 RNAi-generated mutants; type: in vivo; conditions: for rescue of PEAMT1 mutants: 5 mM
[6] = test system: C. elegans PEAMT2 RNAi-generated mutants; conditions: in vivo
P. falciparum = conditions: cited from earlier work
P. falciparum PEAMT = P. falciparum PEAMT (Plasmodium falciparum, UniProt Q8IDQ9); conditions: cited from earlier work
P. falciparum PEAMT, sequence (Q8IDQ9 whole entry): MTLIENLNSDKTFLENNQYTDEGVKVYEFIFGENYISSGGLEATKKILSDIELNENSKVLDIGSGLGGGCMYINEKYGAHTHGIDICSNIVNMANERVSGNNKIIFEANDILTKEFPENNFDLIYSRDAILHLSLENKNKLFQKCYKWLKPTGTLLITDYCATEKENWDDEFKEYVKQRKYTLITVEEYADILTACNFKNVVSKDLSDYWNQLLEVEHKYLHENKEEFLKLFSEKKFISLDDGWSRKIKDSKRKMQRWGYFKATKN

[7] = L4 P0 on NGM plates, 23° C., visual observation over several days
[8] = Caenorhabditis elegans, average number of adults in 4 replicate wells 96 hours after challenge, 20° C., read-out: EC50
[9] = 10 days after inoculation, rating scale 0-3 (% root mass galled)
[10] = rating scale 0-3 (% plant weight reduction)

Compound: 2-[(4-phenylazo)phenylanilino]ethanesulfonamide [Compound 3770]
- EC50 (C. elegans (strain N2); average number of adults in 4 replicate wells 96 hours after challenge, 20° C., read-out: EC50): 20 µM

Compound: NCC(O)c1ccccc1 (stereo not drawn) [2-amino-1-phenylethanol]
- F1 PHENOTYPE (C. elegans [1]; C. elegans, 25 mM): Wild-type development
- nematicidal activity against C. elegans (C. elegans [1]; [7]): no nematicidal effect

Compound: OCCNCc1ccccc1 [Compound 3702, 2-Benzylaminoethanol]
- EC50 (C. elegans (strain N2); [8]): 3400 µM

Compound: CC(C)(C)NCCO [Compound 3703, 2-(tert-Butylamino)ethanol]
- F1 PHENOTYPE (Cephalobus sp.; Cephalobus sp., 10 mM): L1/L2 arrest/lethality
- F1 PHENOTYPE (C. elegans [1]; C. elegans, 10 mM): L1/L2 arrest/lethality
- nematicidal activity against C. elegans (C. elegans [1]; [7]): showed nematicidal activity
- F1 PHENOTYPE (A. ellesmerensis; A. ellesmerensis, 10 mM): L1/L2 arrest/lethality
- EC50 (C. elegans (strain N2); [8]): 4100 µM

Compound: N[C@@H](CO)Cc1ccccc1 [Compound 3704, D-Phenylalaninol]
- F1 PHENOTYPE (Cephalobus sp.; in vivo): L1/L2 arrest/lethality
- F1 PHENOTYPE (C. elegans [1]; in vivo): L1/L2 arrest/lethality
- nematicidal activity against C. elegans (C. elegans [1]; in vivo): showed nematicidal activity
- F1 PHENOTYPE (A. ellesmerensis; in vivo): L1/L2 arrest/lethality
- EC50 (C. elegans (strain N2); Caenorhabditis elegans, 96 h): 2500 µM

Compound: OCCNc1ccccc1 [Compound 3733, N-(2-Hydroxyethyl)aniline]
- F1 PHENOTYPE (C. elegans [1]; C. elegans, 10 mM): L1/L2 arrest/lethality
- nematicidal activity against C. elegans (C. elegans [1]; [7]): showed nematicidal activity
- EC50 (C. elegans (strain N2); [8]): 4200 µM

Compound: COc1ccc(NCCS(=O)(=O)F)cc1 [Compound 3736, 2-4-methoxy-phenylaminoethanesulfonyl fluoride]
- EC50 (C. elegans (strain N2); in vivo, read-out: EC50): 500 µM

Compound: O=S(=O)(F)CCNc1ccc(Cl)cc1 [Compound 3738, 2-4-chlorophenylaminoethanesulfonyl fluoride]
- EC50 (C. elegans (strain N2); in vivo, read-out: EC50): 82 µM

Compound: O=C1CCC(=O)N1CCS(=O)(=O)F [Compound 3743, 2,5-Dioxo-1-pyrrolidineethanesulfonyl fluoride]
- EC50 (C. elegans (strain N2); in vivo, read-out: EC50): 1300 µM

Compound: O=S(=O)(F)CCn1nnc2ccccc21 [Compound 3745, 2-Benzotriazol-1-yl-ethanesulfonylfluoride]
- EC50 (C. elegans (strain N2); in vivo, read-out: EC50): 1700 µM and 1340 µM

Compound: O=S(=O)(F)CCn1cnc2ccccc21 [Compound 3747, 2-Benzoimidazol-1-yl-ethanesulfonyl fluoride]
- EC50 (C. elegans (strain N2); in vivo, read-out: EC50): 1400 µM

Compound: O=S(=O)(F)CCNc1ccccc1 [Compound 3754, 2-phenylaminoethanesulfonyl fluoride]
- EC50 (C. elegans (strain N2); in vivo, read-out: EC50): 940 µM and 570 µM

Compound: CCN(C)c1ccc(/N=N/c2ccccc2)cc1 [Compound 3761, 4-N-ethyl-N-methylaminoazobenzene]
- EC50 (C. elegans [2]; agar (plate) assay, 20° C.): 0.8 µg/mL (≈ 3.34 µM)
- EC50 (C. elegans [3]; liquid (well) assay, 20° C.): 6.3 to 12.5 µg/mL (≈ 26.3 to 52.2 µM)
- Gall 40 (gall rating) [4, 9]: 0.67
- Gall 200 (gall rating) [4, 9]: 0.00
- Ptox 40 (phytotoxicity rating) (cucumber seedling; [10]): 0.00
- Ptox 200 (phytotoxicity rating) (cucumber seedling; [10]): 1.00
- EC50 (C. elegans (strain N2); [8]): 7 µM

Compound: CCNc1ccccc1 [Compound 3766, N-ethylaniline]
- EC50 (C. elegans (strain N2); [8]): 360 µM

Compound: CN(C)c1ccc(/N=N/c2ccc(NCCS(=O)(=O)F)cc2)cc1 [Compound 3767, 2-[4-(4-dimethylamino-phenylazo)-phenylamino]-ethanesulfonyl fluoride]
- EC50 (C. elegans (strain N2); Caenorhabditis elegans, 96 h): 7 µM

Compound: CN(C)c1ccc(/N=N/c2ccccc2)cc1 [DC3783, Dimethyl-(4-phenylazo-phenyl)-amine]
- EC50 (C. elegans [2]): 1.6 µg/mL (≈ 7.1 µM)
- EC50 (C. elegans [3]): 0.4 to 0.78 µg/mL (≈ 1.78 to 3.46 µM)

Compound: Cc1ccc(/N=N/c2ccc(N(C)C)cc2)cc1 [DC3785, Dimethyl-(4-p-tolylazo-phenyl)-amine]
- EC50 (C. elegans [2]; agar (plate) assay, 20° C.): > 100 µg/mL
- EC50 (C. elegans [3]; liquid (well) assay, 20° C.): 6.3 to 12.5 µg/mL (≈ 26.3 to 52.2 µM)

Compound: Cc1cc(N(C)C)ccc1/N=N/c1ccccc1 [DC3787, Dimethyl-(3-methyl-4-phenylazo-phenyl)-amine]
- EC50 (C. elegans [2]; agar (plate) assay, 20° C.): 1.6 µg/mL (≈ 6.69 µM)
- EC50 (C. elegans [3]; liquid (well) assay, 20° C.): 0.4 to 0.78 µg/mL (≈ 1.67 to 3.26 µM)

Compound: CN(C)c1ccc(/N=N/c2ccccn2)cc1 [DC3791, Dimethyl-[4-(pyridin-2-ylazo)-phenyl]-amine]
- EC50 (C. elegans [2]; agar (plate) assay, 20° C.): 12.5 to 25 µg/mL (≈ 55.2 to 110 µM)
- EC50 (C. elegans [3]; liquid (well) assay, 20° C.): 25 to 50 µg/mL (≈ 110 to 221 µM)

Compound: O=C1C=CC(=O)N1c1ccc(/N=N/c2ccccc2)cc1 [DC3792, 1-(4-Phenylazo-phenyl)-pyrrole-2,5-dione]
- EC50 (C. elegans [2]; agar (plate) assay, 20° C.): > 100 µg/mL
- EC50 (C. elegans [3]; liquid (well) assay, 20° C.): 3.2 to 6.3 µg/mL (≈ 11.5 to 22.7 µM)

Compound: CC(=O)Nc1ccc(/N=N/c2ccccc2)cc1Cl [DC3796, N-(2-Chloro-4-phenylazo-phenyl)-acetamide]
- EC50 (C. elegans [2]; agar (plate) assay, 20° C.): 6.3 µg/mL (≈ 23 µM)
- EC50 (C. elegans [3]; liquid (well) assay, 20° C.): 3.2 to 6.3 µg/mL (≈ 11.7 to 23 µM)

Compound: CCNc1ccc(/N=N/c2ccc(Br)cc2)cc1 [DC3800, [4-(4-Bromo-phenylazo)-phenyl]-ethyl-amine]
- EC50 (C. elegans [2]; agar (plate) assay, 20° C.): 0.4 µg/mL (≈ 1.31 µM)
- EC50 (C. elegans [3]; liquid (well) assay, 20° C.): 0.2 to 0.4 µg/mL (≈ 0.657 to 1.31 µM)
- Gall 40 (gall rating) [4, 9]: 1.33
- Gall 200 (gall rating) [4, 9]: 0.00
- Ptox 40 (phytotoxicity rating) (cucumber seedling; [10]): 0.00
- Ptox 200 (phytotoxicity rating) (cucumber seedling; [10]): 2.67

Compound: CCNc1ccc(/N=N/c2ccc(C)cc2)cc1 [DC3801, Ethyl-(4-p-tolylazo-phenyl)-amine]
- EC50 (C. elegans [2]; agar (plate) assay, 20° C.): 0.4 µg/mL (≈ 1.67 µM)
- EC50 (C. elegans [3]; liquid (well) assay, 20° C.): 0.2 to 0.4 µg/mL (≈ 0.836 to 1.67 µM)
- Gall 40 (gall rating) [4, 9]: 1.33
- Gall 200 (gall rating) [4, 9]: 0.00
- Ptox 40 (phytotoxicity rating) (cucumber seedling; [10]): 1.67
- Ptox 200 (phytotoxicity rating) (cucumber seedling; [10]): 3.00

Compound: CN1CCCc2cc(/N=N/c3ccc(Br)cc3)ccc21 [DC3819, (4-Bromo-phenyl)-(1-methyl-1,2,3,4-tetrahydro-quinolin-6-yl)-diazene]
- EC50 (C. elegans [2]; agar (plate) assay, 20° C.): 0.8 µg/mL (≈ 2.42 µM)
- EC50 (C. elegans [3]; liquid (well) assay, 20° C.): 0.4 to 0.8 µg/mL (≈ 1.21 to 2.42 µM)

Compound: COc1ccc(/N=N/c2ccc3c(c2)CCCN3C)cc1 [DC3821, (4-Methoxy-phenyl)-(1-methyl-1,2,3,4-tetrahydro-quinolin-6-yl)-diazene]
- EC50 (C. elegans [2]; agar (plate) assay, 20° C.): 1.6 µg/mL (≈ 5.69 µM)
- EC50 (C. elegans [3]; liquid (well) assay, 20° C.): 0.8 to 1.6 µg/mL (≈ 2.84 to 5.69 µM)

Compound: CN(C)c1ccc(/N=N/c2ccccn2)c(O)c1 [DC3829, 5-Dimethylamino-2-(pyridin-2-ylazo)-phenol]
- EC50 (C. elegans [2]; agar (plate) assay, 20° C.): 3.2 µg/mL (≈ 13.2 µM)
- EC50 (C. elegans [3]; liquid (well) assay, 20° C.): 6.2 to 12.5 µg/mL (≈ 25.6 to 51.6 µM)

Compound: Cc1ccccc1/N=N/c1ccc(N(C)C)cc1 [DC3832, Dimethyl-(4-o-tolylazo-phenyl)-amine]
- EC50 (C. elegans [2]; agar (plate) assay, 20° C.): 1.6 µg/mL (≈ 6.69 µM)
- EC50 (C. elegans [3]; liquid (well) assay, 20° C.): 1.5 to 3.1 µg/mL (≈ 6.27 to 13 µM)

Compound: O=C1CSC(=S)N1c1ccc(/N=N/c2ccc([N+](=O)[O-])cc2)cc1 [DC3833, 3-[4-(4-Nitro-phenylazo)-phenyl]-2-thioxo-thiazolidin-4-one]
- EC50 (C. elegans [2]; agar (plate) assay, 20° C.): 6.2 µg/mL (≈ 17.3 µM)
- EC50 (C. elegans [3]; liquid (well) assay, 20° C.): 12.5 to 25 µg/mL (≈ 34.9 to 69.8 µM)

Compound: O=[N+]([O-])c1ccc(/N=N/c2ccc(O)cc2)cc1 [DC3844, 4-(4-Nitro-phenylazo)-phenol]
- EC50 (C. elegans [2]; agar (plate) assay, 20° C.): 6.25 µg/mL (≈ 25.7 µM)
- EC50 (C. elegans [3]; liquid (well) assay, 20° C.): 3.1 to 6.2 µg/mL (≈ 12.7 to 25.5 µM)

Compound: CNc1ccc(N=Nc2ccccc2)cc1 [DC3845, Methyl-(4-phenylazo-phenyl)-amine]
- EC50 (C. elegans [2]): 0.4 µg/mL (≈ 1.89 µM)
- EC50 (C. elegans [3]): 0.4 to 0.8 µg/mL (≈ 1.89 to 3.79 µM)
- Gall 40 (gall rating) [4]: 0.33
- Gall 200 (gall rating) [4]: 0.00
- Ptox 40 (phytotoxicity rating) (cucumber seedling): 1.00
- Ptox 200 (phytotoxicity rating) (cucumber seedling): 3.00

Compound: CN(C)c1ccc(/N=N/c2cccc(Cl)c2)cc1 [DC3853, [4-(3-Chloro-phenylazo)-phenyl]-dimethyl-amine]
- EC50 (C. elegans [2]; agar (plate) assay, 20° C.): 0.4 µg/mL (≈ 1.54 µM)
- EC50 (C. elegans [3]; liquid (well) assay, 20° C.): 0.4 µg/mL (≈ 1.54 µM)

Compound: CN(C)c1ccc(C(=O)c2ccccc2)cc1 [DC3890, (4-Dimethylamino-phenyl)-phenyl-methanone]
- EC50 (C. elegans [3]; liquid (well) assay, 20° C.): 12 µg/mL (≈ 53.3 µM)

Compound: O=[N+]([O-])c1ccc(N=Nc2ccccc2)cc1 [DC3898, (4-Nitro-phenyl)-phenyl-diazene]
- EC50 (C. elegans [3]; liquid (well) assay, 20° C.): 1.6 µg/mL (≈ 7.04 µM)

Compound: CN(C)c1ccc(/C=C/C(=O)c2ccccc2)cc1 [DC3901, 3-(4-Dimethylamino-phenyl)-1-phenyl-propenone]
- EC50 (C. elegans [3]; liquid (well) assay, 20° C.): 12.5 µg/mL (≈ 49.7 µM)

Compound: CN(C)CCO [DME, dimethylethanolamine]
- rescue of PEAMT1 mutants [5]: rescued
- F1 phenotype PEAMT1 dsRNA ([5]; in vivo): Fertile adults
- rescue of the sterility associated with PEAMT1 RNAi ([5]; in vivo): rescues the sterility
- F1 phenotype PEAMT2 dsRNA [6]: Sterility; also recorded: L1/L2 arrest/lethality

Compound: NCCO [EA, ethanolamine]
- F1 phenotype PEAMT1 dsRNA ([5]; in vivo): L1/L2 arrest/lethality
- F1 phenotype PEAMT2 dsRNA [6]: L1/L2 arrest/lethality

Compound: CNCCO [MME, monomethylethanolamine]
- rescue of PEAMT1 mutants [5]: rescued
- F1 phenotype PEAMT1 dsRNA ([5]; in vivo): Fertile adults
- F1 phenotype PEAMT2 dsRNA [6]: L1/L2 arrest/lethality

Compound: CCCCCCCCCCCCCCCCOP(=O)([O-])OCC[N+](C)(C)C [miltefosine]
- parasite proliferation within human erythrocytes (P. falciparum): inhibits parasite proliferation
- inhibition of the plasmodium PEAMT enzyme (P. falciparum PEAMT): inhibited
